Tests used:
Assay type in all cases: in vivo
Oryza sativa (ORYSA) = experiment: Post-emergence crop plant compatibility, greenhouse pot test (also comparative test C); settings: vs untreated controls
Method in brief: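 Visual damage versus untreated plants (0% = like control, 100% = plants died) was scored about 3 weeks after a post-emergence spray in greenhouse pots. Treatment: one-leaf stage, WP or EC in water at 600 l/ha with 0.5% additive; a/b/c mark different dosages on the same crop.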

[1] = system: Echinochloa crus-galli (ECHCG); experiment: Post-emergence herbicidal action, greenhouse pot test (also comparative test C)
Method in brief: (§1)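 Greenhouse pot plants in sandy loam were sprayed post-emergence at the one-leaf stage (2–3 weeks after sowing) with WP or EC formulations plus 0.5% additive at 600 l/ha water. Activity was rated visually after about 3 weeks versus untreated controls (100% = dead, 0% = like control); rates were 20 g/ha or less, and 5 g/ha or less in the comparative test.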

Setaria viridis (SETVI) = experiment: as above
Method in brief: as §1

[2] = system: Matricaria inodora (MATIN); experiment: as above
Method in brief: as §1

[3] = system: Alopecurus myosuroides (ALOMY); experiment: as above; settings: rated visually after about 3 weeks vs untreated controls, 100% = plants have died
Method in brief: as §1

[4] = system: Triticum aestivum (TRZAS); experiment: Post-emergence crop plant compatibility, greenhouse pot test; settings: vs untreated controls
Method in brief: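 Values are visual % damage versus untreated controls (100% = plants died) about 3 weeks after treatment. Plants in sandy loam were sprayed at the one-leaf stage, 2–3 weeks after sowing, with aqueous WP/EC preparations plus 0.5% additive at 600 l/ha; a/b/c mark different dose levels.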

[5] = system: Amaranthus retroflexus (AMARE); experiment: Post-emergence herbicidal action, greenhouse pot test; settings: rated visually after about 3 weeks vs untreated controls, 100% = plants have died
Method in brief: (§2)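 Activity was scored by eye about 3 weeks after treatment against untreated plants, where 100% means dead plants and 0% means no difference. Plants at the one-leaf stage received a foliar spray of WP or EC formulations in water plus 0.5% additive (600 l/ha, up to 20 g/ha). Plants were grown in sandy loam pots in a greenhouse for 2–3 weeks before spraying.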

Veronica persica (VERPE) = experiment: as above
Method in brief: as §2

[6] = system: Pharbitis purpurea (PHBPU); experiment: as above
Method in brief: as §2

Lolium rigidum (LOLRI) = experiment: as above; settings: dosage 20 g/ha
Method in brief: as §2

[7] = system: Abutilon theophrasti (ABUTH); experiment: as above; settings: rated visually after about 3 weeks vs untreated controls, 100% = plants have died
Method in brief: as §2

[8] = system: Polygonum convolvulus (POLCO); experiment: as above
Method in brief: as §2

Avena fatua (AVEFA) = experiment: as above; settings: rated visually after about 3 weeks vs untreated controls, 100% = plants have died
Method in brief: as §2

Viola tricolor (VIOTR) = experiment: as above
Method in brief: as §2

- Post-emergence action against ORYSA (crop plant compatibility) (Oryza sativa (ORYSA); 1.25 g/ha): 0%
- Post-emergence action against ORYSA (crop plant compatibility) (Oryza sativa (ORYSA); 5 g/ha): 20%
- Post-emergence action against TRZAS (crop plant compatibility) ([4]; 1.25 g/ha): 0%
- Post-emergence action against TRZAS (crop plant compatibility) ([4]; 5 g/ha): 20%
Compound: Cn1c(C(F)(F)F)cc(=O)n(-c2cc(Oc3ccccc3OCC(=O)OCCOC(F)(F)F)c(Cl)cc2F)c1=O [I.7-41]
- Post-emergence action at 1.25 g/ha against ECHCG in % ([1]; 1.25 g/ha, rated visually after about 3 weeks vs untreated controls, 100% = plants have died): 90%
- Post-emergence action against ECHCG in % ([1]; dosage 5 g/ha): 100%
- Post-emergence action against ECHCG in % ([1]; dosage 20 g/ha): 100%
- Post-emergence action against SETVI (Setaria viridis (SETVI); 20 g/ha): 100%
- Post-emergence action against SETVI in % (Setaria viridis (SETVI); dosage 1.25 g/ha): 100%
- Post-emergence action against SETVI in % (Setaria viridis (SETVI); dosage 5 g/ha): 100%
- Post-emergence action against MATIN in % ([2]; dosage 1.25 g/ha): 90%
- Post-emergence action against MATIN in % ([2]; dosage 5 g/ha): 90%
- Post-emergence action against MATIN in % ([2]; dosage 20 g/ha): 100%
- Post-emergence action at 1.25 g/ha against ALOMY in % ([3]; 1.25 g/ha): 100%
- Post-emergence action at 5 g/ha against ALOMY in % ([3]; 5 g/ha): 100%
- Post-emergence action at 20 g/ha against ALOMY in % ([3]; 20 g/ha): 100%
- Post-emergence action at 1.25 g/ha against AMARE in % ([5]; 1.25 g/ha): 100%
- Post-emergence action at 5 g/ha against AMARE in % ([5]; 5 g/ha): 100%
- Post-emergence action at 20 g/ha against AMARE in % ([5]; 20 g/ha): 100%
- Post-emergence action against VERPE (Veronica persica (VERPE); 1.25 g/ha): 80%
- Post-emergence action against VERPE (Veronica persica (VERPE); 5 g/ha): 100%
- Post-emergence action against VERPE (Veronica persica (VERPE); 20 g/ha): 100%
- Post-emergence action against PHBPU in % ([6]; dosage 1.25 g/ha): 100%
- Post-emergence action against PHBPU in % ([6]; dosage 5 g/ha): 100%
- Post-emergence action against PHBPU in % ([6]; dosage 20 g/ha): 100%
- Post-emergence action against LOLRI in % (Lolium rigidum (LOLRI)): 80%
- Post-emergence action at 1.25 g/ha against ABUTH in % ([7]; 1.25 g/ha): 100%
- Post-emergence action at 5 g/ha against ABUTH in % ([7]; 5 g/ha): 100%
- Post-emergence action at 20 g/ha against ABUTH in % ([7]; 20 g/ha): 100%
- Post-emergence action against POLCO in % ([8]; dosage 5 g/ha): 100%
- Post-emergence action against POLCO in % ([8]; dosage 20 g/ha): 100%
- Post-emergence action at 5 g/ha against AVEFA in % (Avena fatua (AVEFA); 5 g/ha): 80%
- Post-emergence action at 20 g/ha against AVEFA in % (Avena fatua (AVEFA); 20 g/ha): 80%
- Post-emergence action against VIOTR (Viola tricolor (VIOTR); 1.25 g/ha): 100%
- Post-emergence action against VIOTR (Viola tricolor (VIOTR); 5 g/ha): 100%
- Post-emergence action against VIOTR (Viola tricolor (VIOTR); 20 g/ha): 100%

Reference: patent US20240025862A1, “SUBSTITUTED N-PHENYLURACILS AND SALTS THEREOF, AND USE THEREOF AS HERBICIDAL ACTIVE SUBSTANCES” (Bayer Aktiengesellschaft, priority 2020, published 2024)
